# Reference: patent publication US20060110790A1, “Expression system for large functional proteins” (priority 2002, published 2006)
# Biological target: T1, individually expressed C half of ABCR (Homo sapiens, UniProt P78363)
# T1 construct: The cDNAs coding for the N-half (amino acids 1-1325) and C-half (amino acids 1326-2273) of ABCR; made in house; host or cells: COS-1 cells
# T1 sequence (P78363 1326-2273): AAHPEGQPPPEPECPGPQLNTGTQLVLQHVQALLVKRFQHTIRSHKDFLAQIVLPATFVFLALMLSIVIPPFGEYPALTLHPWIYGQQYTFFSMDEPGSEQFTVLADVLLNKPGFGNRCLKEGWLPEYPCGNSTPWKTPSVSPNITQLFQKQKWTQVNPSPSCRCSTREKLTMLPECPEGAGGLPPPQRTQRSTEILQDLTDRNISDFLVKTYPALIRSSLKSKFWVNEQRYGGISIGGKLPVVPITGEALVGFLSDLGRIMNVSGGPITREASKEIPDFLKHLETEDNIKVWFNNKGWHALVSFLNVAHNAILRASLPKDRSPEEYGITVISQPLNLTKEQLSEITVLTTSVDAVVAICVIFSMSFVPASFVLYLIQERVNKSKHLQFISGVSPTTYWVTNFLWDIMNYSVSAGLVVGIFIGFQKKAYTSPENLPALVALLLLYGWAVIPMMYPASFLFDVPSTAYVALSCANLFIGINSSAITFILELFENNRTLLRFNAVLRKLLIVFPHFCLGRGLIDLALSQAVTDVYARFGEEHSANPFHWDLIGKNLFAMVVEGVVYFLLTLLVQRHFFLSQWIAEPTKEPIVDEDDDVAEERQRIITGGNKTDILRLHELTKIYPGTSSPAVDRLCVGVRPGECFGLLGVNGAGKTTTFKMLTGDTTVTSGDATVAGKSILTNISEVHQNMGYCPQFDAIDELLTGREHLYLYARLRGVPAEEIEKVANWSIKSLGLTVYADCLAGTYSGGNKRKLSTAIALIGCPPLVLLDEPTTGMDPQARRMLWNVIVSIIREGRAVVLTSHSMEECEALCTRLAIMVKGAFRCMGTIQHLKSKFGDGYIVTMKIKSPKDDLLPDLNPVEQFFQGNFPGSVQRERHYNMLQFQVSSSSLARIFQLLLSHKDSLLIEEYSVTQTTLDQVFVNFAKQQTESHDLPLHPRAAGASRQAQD
# Experiment: Retinal-stimulated ATPase activity of purified protein reconstituted in lipid vesicles
# Type: biochemical
# Details: individually expressed in COS-1 cells, 50 μM [α32P]ATP
# Procedure: Membranes (from two 10 cm dishes) were solubilized in 0.5 ml of 1% Triton-X100 in Buffer A (140 mM NaCl, 20 mM Tris-HCl, pH 7.4) for 20 min on ice. For ATPase assays, the membrane preparation step was omitted and the cell suspension was solubilized directly in Buffer B (10 mg/ml soybean phospholipids, 10% glycerol, 1 mM dithiothreitol, 100 mM NaCl, 3 mM MgCl2, 50 mM NaHEPES, pH 7.4) containing 18 mM CHAPS. The supernatant after a 10 min centrifugation at 40,000 rpm (TLA100.4 rotor) was mixed with 50 μl Rim3F4 Sepharose 2B for 1 h at 4° C. The beads were washed 6 times in Buffer A containing 0.2% Triton X-100 or Buffer B containing 10 mM CHAPS and eluted with 4% SDS (for electrophoresis) or 0.2 mg/ml Rim3F4 peptide (for reconstitution and determination of ATPase activity). Purified protein (24 μl) was incubated with 6 μl of 50 mg/ml lipid (1:1 mixture of dioleoylphosphatidylethanolamine and brain polar lipid, by weight) and 3 μl n-octylglucoside for 30 min on ice. The mixture was diluted rapidly with 200 μl of Buffer C (1 mM dithiothreitol, 140 mM NaCl, 25 mM NaHEPES, pH 7.4) and passed through a 200 μl Extracti-gel column (Pierce). The flow-through containing the reconstituted protein was used for determination of ATPase activity.
# ATPase activity was measured as described previously (Ahn, J., Wong, J. T., and Molday, R. S. (2000) J Biol Chem 275(27), 20399-405) using 50 μM [α^32P]ATP and thin layer chromatography. The all-trans retinal concentration was determined spectrophotometrically (λ383 nm=42.88 mM^−1 cm^−1). Protein concentration was estimated from the eluate before reconstitution by laser densitometry of Coomassie blue stained gels using bovine serum albumin as a standard. […] Direct protein measurements after reconstitution by densitometry of Western blots was about half of that in the eluate. […]
# ATPase Activity of Expressed N and C Halves—The basal and retinal activated ATPase activity of full-length ABCR and the N and C halves individually or co-expressed in COS-1 cells was determined after immunoaffinity purification and reconstitution into lipid vesicles. […]
smiles,measurement,value
CC1=C(/C=C/C(C)=C/C=C/C(C)=C/C=O)C(C)(C)CCC1 [all-trans retinal],stimulation of ATPase activity,not stimulated
